Measurements as given in the NIST ThermoML archive (doi:10.1016/j.fluid.2017.07.002).
Several values for one entry are separate records, joined by “and”; a condition that tells them apart may be missing. Equal values may be shown once. ± gives the expanded uncertainty stated by the source. One block for each compound: values may come before it.

Settings: Liquid, Closed cell (Static) method

vapor or sublimation pressure (173.63 K): 53.57 ± 0.85 kPa
vapor or sublimation pressure (177.24 K): 66.42 ± 1.1 kPa
vapor or sublimation pressure (183.28 K): 94.31 ± 1.1 kPa
vapor or sublimation pressure (228.82 K): 673.93 ± 3.5 kPa
SMILES: CC [ethane]

vapor or sublimation pressure (223.21 K): 53.1 ± 1.9 kPa
vapor or sublimation pressure (272.76 K): 408.18 ± 2 kPa
SMILES: FC(F)(F)C(F)(F)C(F)(F)F [octafluoropropane]

vapor or sublimation pressure (173.86 K): 34.35 ± 0.58 kPa
vapor or sublimation pressure (177.11 K): 41.46 ± 0.77 kPa
vapor or sublimation pressure (183.19 K): 62.33 ± 0.9 kPa
vapor or sublimation pressure (183.2 K): 62.29 ± 0.92 kPa
vapor or sublimation pressure (193.19 K): 113.55 ± 3.3 kPa
vapor or sublimation pressure (228.83 K): 600.35 ± 3.2 kPa
vapor or sublimation pressure (233.16 K): 707.03 ± 6.9 kPa
vapor or sublimation pressure (273.25 K): 2502.8 ± 13 kPa
SMILES: FC(F)F [trifluoromethane]

Second part, the compound before the results:

SMILES: C=C(F)C(F)(F)F [2,3,3,3-tetrafluoro-1-propene]
vapor or sublimation pressure (193.26 K): 5.46 ± 0.38 kPa
vapor or sublimation pressure (193.3 K): 5.69 ± 0.38 kPa
vapor or sublimation pressure (223 K): 37.74 ± 0.42 kPa
vapor or sublimation pressure (223.08 K): 37.41 ± 1.1 kPa
vapor or sublimation pressure (223.11 K): 37.48 ± 1.1 kPa
vapor or sublimation pressure (233.02 K): 61.64 ± 0.61 kPa
vapor or sublimation pressure (233.04 K): 62.24 ± 1.3 kPa
vapor or sublimation pressure (272.69 K): 310.8 ± 1.5 kPa
vapor or sublimation pressure (272.75 K): 310.85 ± 1.5 kPa and 310.76 ± 1.5 kPa
vapor or sublimation pressure (272.78 K): 311.18 ± 1.5 kPa
vapor or sublimation pressure (272.8 K): 311.8 ± 1.5 kPa
vapor or sublimation pressure (272.81 K): 311.46 ± 1.5 kPa

SMILES: FC(F)(F)F [tetrafluoromethane]
vapor or sublimation pressure (153.23 K): 171.92 ± 5.7 kPa
vapor or sublimation pressure (193.43 K): 1205.3 ± 6.8 kPa
